Patent EP0465481B1, “NEW S[…] DERIVATIVES OF TEICOPLANIN” (GRUPPO LEPETIT S.p.A., priority 1989, dated 1990)

System: Pseudomonas aeruginosa
Test: MIC, standard two-fold dilution test in microtiter
Type: cell-based
Conditions: against Pseudomonas aeruginosa
Description: Broth cultures are diluted enough so that the final inoculum is about 10^4 colony forming units/ml (CFU/mi).

teicoplanin showed an MIC of at least 32 microgram/ml.
